One test has as its target EthR-VP16 (Mycobacterium bovis, UniProt Q7TVI1). The experiment in a line: cell-based. The following applies: 48 h, read-out: % EthR activity (w/o = 100%); ± std. dev. of the mean (n = 3). Also noted: species or system M. bovis.
The test system of test [1] is Mycobacterium tuberculosis laboratory strain H37Rv. The experiment in a line: Growth inhibition / drug susceptibility testing of M. tuberculosis with MGIT 960 system, compounds combined with ethionamide. The format is cell-based. Also noted: key to growth inhibition of M. tuberculosis H37Rv (R/I/S): R: Resistance, no effect of combinatorial drug application; I: intermediate; S: sensitive.

EthR-VP16, sequence (Q7TVI1 whole entry, looked up): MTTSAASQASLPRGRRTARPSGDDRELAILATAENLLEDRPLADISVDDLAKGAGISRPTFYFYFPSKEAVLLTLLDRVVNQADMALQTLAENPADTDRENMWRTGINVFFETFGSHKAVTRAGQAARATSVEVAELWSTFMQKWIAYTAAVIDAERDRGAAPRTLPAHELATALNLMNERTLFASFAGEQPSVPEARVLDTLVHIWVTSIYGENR

For `CC(C)CC(=O)N1CCOC(c2ccccc2)C1` (centres unmarked) [Example 19, 3-Methyl-1-(2-phenylmorpholin-4-yl)butan-1-one], on EthR-VP16, the remaining activity at 0.5 µM is 95.6 ± 9.07%, the remaining activity at 1.5 µM amounted to 102 ± 4.13%, the remaining activity at 3 µM was found to be 95.9 ± 9.02% and the remaining activity at 6 µM was found to be 96.4 ± 13.5%. In addition, at EthR-VP16, the remaining activity at 15 µM was determined as 76 ± 6.56%, the remaining activity at 30 µM came out at 35.2 ± 5.28%, the remaining activity at 60 µM was 33.5 ± 5.96% and the remaining activity at 300 µM came to 27.6 ± 0.37%.

In the case of `CC(C)(C)CC(=O)N1CCOC(c2ccccc2)C1` (centres unmarked) [Example 20, 3,3-Dimethyl-1-(2-phenylmorpholin-4-yl)butan-1-one], at EthR-VP16, the remaining activity at 0.5 µM was 96.6 ± 11.1%, the remaining activity at 1.5 µM worked out at 90.9 ± 14%, the remaining activity at 3 µM worked out at 88.2 ± 8.63% and the remaining activity at 6 µM amounted to 89 ± 4.56%. Further, on EthR-VP16, the remaining activity at 15 µM worked out at 75.5 ± 6.63%, the remaining activity at 30 µM is 43.7 ± 3.21%, the remaining activity at 60 µM was 33 ± 6.41% and the remaining activity at 300 µM was found to be 35.5 ± 1.37%.

Regarding `O=C(CCc1ccco1)N1CCN(Cc2ccccc2)CC1` [Example 18, 1-(4-Benzylpiperazin-1-yl)-3-(furan-2-yl)propan-1-one], on EthR-VP16, the remaining activity at 0.5 µM turned out to be 91.9 ± 3.57%, the remaining activity at 1.5 µM is 80.7 ± 8.89%, the remaining activity at 3 µM stood at 81.4 ± 15.9% and the remaining activity at 6 µM was found to be 59.3 ± 1.2%. At EthR-VP16, the remaining activity at 15 µM was found to be 44.2 ± 2.35%, the remaining activity at 30 µM came to 11.2 ± 1.68%, the remaining activity at 60 µM came to 12.4 ± 1.85% and the remaining activity at 300 µM amounted to 1.74 ± 0.26%.

As for `CCCCC(=O)N1CCC(c2ccccc2)C1` (centres unmarked) [Example 32, 1-(3-Phenylpyrrolidin-1-yl)pentan-1-one], at EthR-VP16, the remaining activity at 0.5 µM was found to be 12.5 ± 5.97%, the remaining activity at 1.5 µM stood at 10.7 ± 2.55%, the remaining activity at 3 µM came to 10.4 ± 2.69% and the remaining activity at 6 µM was 9.96 ± 3.44%. Also, on EthR-VP16, the remaining activity at 15 µM is 5.65 ± 1.1%, the remaining activity at 30 µM came out at 8.77 ± 1.57%, the remaining activity at 60 µM is 8.89 ± 1.74% and the remaining activity at 300 µM stood at 1.56 ± 0.8%.

With `O=C(COc1ccc(F)cc1)N1CCC(c2ccccc2)C1` (centres unmarked) [Example 15, 2-(4-Fluorophenoxy)-1-(3-phenylpyrrolidin-1-yl)ethan-1-one], the remaining activity at 0.5 µM on EthR-VP16 was 10.3 ± 1.26%. Moreover, the remaining activity at 1.5 µM on EthR-VP16 was 10.3 ± 0.43%. Besides, the remaining activity at 3 µM on EthR-VP16 turned out to be 7.81 ± 0.95%. Also, on EthR-VP16, the remaining activity at 6 µM came to 6.01 ± 1.93%. Also, the remaining activity at 15 µM on EthR-VP16 came to 3.21 ± 1.35%. At EthR-VP16, the remaining activity at 30 µM worked out at 0.77 ± 0.32%. In addition, the remaining activity at 60 µM on EthR-VP16 came out at 0.86 ± 0.36%. In addition, the remaining activity at 300 µM on EthR-VP16 amounted to 0.89 ± 0.37%. Also, the “growth inhibition of M. tuberculosis H37Rv (R/I/S)” value (“growth inhibition” below) in test [1] (Example compound 0.5 μM + ethionamide 0.16 μg/ml) was “R”; in test [1] (Example compound 0.5 μM + ethionamide 0.31 μg/ml), “R”; in test [1] (Example compound 0.5 μM + ethionamide 0.625 μg/ml), “I”; in test [1] (Example compound 0.5 μM + ethionamide 1.25 μg/ml), “S”; in test [1] (Example compound 0.5 μM + ethionamide 2.5 μg/ml), “S”; in test [1] (Example compound 0.5 μM + ethionamide 5 μg/ml) it was “S”. Further, the “growth inhibition” value in test [1] (Example compound 0.5 μM, ethionamide 0 μg/ml) is listed as “R”; in test [1] (Example compound 1.5 μM + ethionamide 0.16 μg/ml), “R”; in test [1] (Example compound 1.5 μM + ethionamide 0.31 μg/ml), “I”; in test [1] (Example compound 1.5 μM + ethionamide 0.625 μg/ml), “I”; in test [1] (Example compound 1.5 μM + ethionamide 1.25 μg/ml) it was “S”; in test [1] (Example compound 1.5 μM + ethionamide 2.5 μg/ml), “S”. Besides, the “growth inhibition” value in test [1] (Example compound 1.5 μM + ethionamide 5 μg/ml) was “S”; in test [1] (Example compound 1.5 μM, ethionamide 0 μg/ml) it was “R”; in test [1] (Example compound 4.5 μM + ethionamide 0.16 μg/ml), “R”; in test [1] (Example compound 4.5 μM + ethionamide 0.31 μg/ml) it was “I”; in test [1] (Example compound 4.5 μM + ethionamide 0.625 μg/ml) it was “S”; in test [1] (Example compound 4.5 μM + ethionamide 1.25 μg/ml) it was “S”. For the same compound, the “growth inhibition” value in test [1] (Example compound 4.5 μM + ethionamide 2.5 μg/ml) is recorded as “S”; in test [1] (Example compound 4.5 μM + ethionamide 5 μg/ml), “S”; in test [1] (Example compound 4.5 μM, ethionamide 0 μg/ml) it was “R”; in test [1] (Example compound 13.5 μM + ethionamide 0.16 μg/ml), “R”; in test [1] (Example compound 13.5 μM + ethionamide 0.31 μg/ml), “I”; in test [1] (Example compound 13.5 μM + ethionamide 0.625 μg/ml) it was “S”. For the same compound, the “growth inhibition” value in test [1] (Example compound 13.5 μM + ethionamide 1.25 μg/ml) is “S”; in test [1] (Example compound 13.5 μM + ethionamide 2.5 μg/ml), “S”; in test [1] (Example compound 13.5 μM + ethionamide 5 μg/ml), “S”; in test [1] (Example compound 13.5 μM, ethionamide 0 μg/ml), “R”; in test [1] (Example compound 40.5 μM + ethionamide 0.16 μg/ml), “R”; in test [1] (Example compound 40.5 μM + ethionamide 0.31 μg/ml), “I”. In addition, the “growth inhibition” value in test [1] (Example compound 40.5 μM + ethionamide 0.625 μg/ml) is “S”; in test [1] (Example compound 40.5 μM + ethionamide 1.25 μg/ml), “S”; in test [1] (Example compound 40.5 μM + ethionamide 2.5 μg/ml) it was “S”; in test [1] (Example compound 40.5 μM + ethionamide 5 μg/ml), “S”; in test [1] (Example compound 40.5 μM, ethionamide 0 μg/ml), “R”. The “growth inhibitory effect of compound alone on M. tuberculosis H37Rv” value in test [1] (compound alone, without ethionamide) was “do not show any growth inhibitory effect”. Further, the “growth of M. tuberculosis H37Rv in the presence of sub-inhibitory ethionamide concentrations” value in test [1] (ethionamide 0.16 and 5 μg/ml, 0.5 to 40.5 μMol compound) is on record as “dose-dependently inhibited”.

As to `CCCCC(=O)N1CCN(Cc2ccccc2)CC1` [Example 28, 1-(4-Benzylpiperazin-1-yl)pentan-1-one], on EthR-VP16, the remaining activity at 0.5 µM came to 97.1 ± 9.36%, the remaining activity at 1.5 µM amounted to 81.5 ± 3.01%, the remaining activity at 3 µM was found to be 59.4 ± 4.9% and the remaining activity at 6 µM came to 46.2 ± 2.55%. Moreover, at EthR-VP16, the remaining activity at 15 µM stood at 38.3 ± 2.21%, the remaining activity at 30 µM came to 18.5 ± 3.64%, the remaining activity at 60 µM is 11.7 ± 2.77% and the remaining activity at 300 µM came out at 10.2 ± 1.94%.

Regarding `CCCCCC(=O)N1CCN(Cc2ccccc2)CC1` [Example 29, 1-(4-Benzylpiperazin-1-yl)hexan-1-one], on EthR-VP16, the remaining activity at 0.5 µM came out at 85.4 ± 9.96%, the remaining activity at 1.5 µM is 56 ± 5.54%, the remaining activity at 3 µM was found to be 36.5 ± 3.17% and the remaining activity at 6 µM was 26.5 ± 0.73%. Besides, on EthR-VP16, the remaining activity at 15 µM is 16.9 ± 0.73%, the remaining activity at 30 µM is 16.7 ± 3.59%, the remaining activity at 60 µM worked out at 10 ± 2.93% and the remaining activity at 300 µM stood at 12.9 ± 4.6%.

As for `O=C(CCCc1ccccc1)N1CC(Cc2ccccc2)C1` [Example 27, 1-(3-Benzylazetidin-1-yl)-4-phenylbutan-1-on], on EthR-VP16, the remaining activity at 0.5 µM was found to be 59.6 ± 2.49%, the remaining activity at 1.5 µM is 42.6 ± 1.49%, the remaining activity at 3 µM was found to be 37.9 ± 5.47% and the remaining activity at 6 µM was 31.3 ± 3.58%. For the same compound, on EthR-VP16, the remaining activity at 15 µM worked out at 31.7 ± 1.36%, the remaining activity at 30 µM stood at 26.3 ± 9.65%, the remaining activity at 60 µM came to 17.5 ± 4.51% and the remaining activity at 300 µM was determined as 15.3 ± 2.79%.

For `O=C(CCc1ccccc1)N1CCC1c1ccccc1` (centres unmarked) [Example 22, 3-Phenyl-1-(2-phenylazetidin-1-yl)propan-1-one], on EthR-VP16, the remaining activity at 0.5 µM is 90 ± 15.2%, the remaining activity at 1.5 µM turned out to be 106 ± 10%, the remaining activity at 3 µM amounted to 97.4 ± 5.01% and the remaining activity at 6 µM was 90.2 ± 8.48%. For the same compound, at EthR-VP16, the remaining activity at 15 µM came out at 77.8 ± 4.33%, the remaining activity at 30 µM is 59.4 ± 4.5%, the remaining activity at 60 µM stood at 33.2 ± 2.46% and the remaining activity at 300 µM is 6.34 ± 0.89%.

On to `O=C(Cc1cccs1)N1CCOC(c2ccccc2)C1` (centres unmarked) [Example 14, 1-(2-Phenylmorpholin-4-yl)-2-(thiophen-2-yl)ethan-1-one], for which, on EthR-VP16, the remaining activity at 0.5 µM is 106 ± 19.8%, the remaining activity at 1.5 µM came to 86.2 ± 1.36%, the remaining activity at 3 µM is 85.9 ± 6.26% and the remaining activity at 6 µM worked out at 74.8 ± 1.22%. Further, on EthR-VP16, the remaining activity at 15 µM is 60.5 ± 1.32%, the remaining activity at 30 µM was 35.4 ± 5.3%, the remaining activity at 60 µM was determined as 25.5 ± 3.82% and the remaining activity at 300 µM turned out to be 9.16 ± 1.37%.

In the case of `CCCC(=O)N1CCC(c2ccccc2)C1` (centres unmarked) [Example 13, 1-(3-Phenylpyrrolidin-1-yl)butan-1-one], at EthR-VP16, the remaining activity at 0.5 µM stood at 30.4 ± 3.98%, the remaining activity at 1.5 µM is 17.7 ± 2.01%, the remaining activity at 3 µM is 11 ± 2.88% and the remaining activity at 6 µM was determined as 10.9 ± 1.45%. On EthR-VP16, the remaining activity at 15 µM turned out to be 12.4 ± 0.99%, the remaining activity at 30 µM worked out at 14.5 ± 7.8%, the remaining activity at 60 µM stood at 10.8 ± 1.34% and the remaining activity at 300 µM was found to be 12 ± 1.27%.

These data come from patent US8912329B2 (priority 2009, dated 2014).
